What was measured:
Format in all cases: ADME
[1] = Half-life by fluorescence method at 37 degrees C
[2] = Half-life by fluorescence method at 25 degrees C
[3] = Half-life by fluorescence method at 30 degrees C

C[C@H]1NC(=O)CC2([C@@](C)(O)C(=O)O)CC[C@@](C)(n3cnc4nc(N)nc(O)c43)[C@@H](S2)[C@@H](O)C(=O)/C=C/C=C\c2csc1n2
half-life [1]: 2.2 h | half-life [2]: 11 h | half-life [3]: 4.6 h
